Assay [1] concerns histamine. Conditions: metabolite of triprolidine in man; known from prior art; cited from earlier work.
Assay [2] deals with histamine. Kind of assay: In vitro antihistaminic activity: shift of histamine concentration-response curves in isolated guinea-pig ileum longitudinal muscle (Schild plot). It is filed as biochemical, guinea-pigs. Conditions: negative log of molar antagonist concentration shifting the control histamine concentration-response curve 2X to the right; tissue incubated one hour with test compound; 60 min. On the procedure:
A.Invitro antihistaminic activity: The longitudinal muscle was isolated from the intact ileum of guinea-pigs (Harley, male 250-400 g) and placed in an organ bath under 300 mg tension. After one hour of equilibration, cumulative concentration-response curves (Van Rossum, J.M., Arch. Int. Pharmacodyn. Ther. 143 299-330,1963) to histamine were obtained. Following washing, the tissues were incubated for one hour with the test compound and then a second histamine concentration-response curve was run. Shifts to the right of the agonist concentration-response curve produced by the antagonists were used to construct Schild plots (Arunlakshana, O. and Schild, H.O., Br. J. Pharmacol: 14, 48-58, 1959). Regression of Log (dr-1) on Log/B/, where dr is an equiactive response in the presence and absence of antagonist and /B/ is the molar concentration of antagonist, allowed an estimate of pA2, i.e. the negative log of the. concentration of antagonist which shifts the control histamine concentration-response curve 2X to the right.
The antihistaminic activities of compounds of the present invention are detailed in table A below.

`O=C(O)c1ccc(/C(=C\CN2CCCC2)c2ccccn2)cc1` [(E)-1-(4-carboxyphenyl)-1-(2-pyridyl)-3-pyrrolidinoprop-1-ene]: the antihistamine activity result with histamine [1] was “little or no antihistamine activity”. For the compound `Cc1ccc(/C(=C\CN2CCCC2)c2cccc(/C=C/c3nnn[nH]3)n2)cc1` [Example 1, 5-(E-6-[3-pyrrolidino-1-(4-tolyl)prop-1E-enyl]-2-pyridylvinyl)-1H-tetrazole], the pA2 in the assay with histamine [2] came to 8.7. Same read-out and setting: as for `O=S(=O)(O)c1cccc(/C(=C/CN2CCCC2)c2ccccc2)c1` [Example 2, (E)-3-(1-phenyl-3-pyrrolidinoprop-1-enyl)-benzenesulphonic Acid], the figure is 7.1; as for `O=S(=O)(O)c1cccc(C(CCN2CCCC2)c2ccccc2)c1` (stereo not shown) [Example 3, 3-(1-phenyl-3-pyrrolidinopropyl) benzenesulphonic acid], 7.3.

As a reminder, the pA2 is a measure of antagonist potency on a negative log scale.

(Values after patent EP0133534A2, “Pyridyl compounds” (THE WELLCOME FOUNDATION LIMITED, priority 1983, dated 1985).)
